The values that follow come from ChEMBL document CHEMBL4000193, “Discovery of a Chemical Probe Bisamide (CCT251236): An Orally Bioavailable Efficacious Pirin Ligand from a Heat Shock Transcription Factor 1 (HSF1) Phenotypic Screen” (J Med Chem, 2017).

In one series the test system is SK-OV-3. Description: cells. To be noted: Homo sapiens, SK-OV-3, 96 h, read-out: pGI50 (converted).
The nature of series [1]: Drug uptake in NCr nude mouse tumor xenografted with human SKOV3 cells at 20 mg/kg, po qd measured after 33 days. To be noted: read-out: Drug uptake. Type of series: ADME, organism-based, Neoplasm.
A further series concerns WM 266-4. Description: Anti-migratory activity against human WM266.4 cells at 1 to 1000 nM after 30 hrs by scratch-wound assay. The series is classed as functional, cell-based.

Calls of active or inactive are those of the source. No cut-off for these calls is given here.

Description for SK-OV-3: Antiproliferative activity against human SKOV3 cells after 96 hrs by CellTiter Blue assay

Regarding `Cc1ccc(NC(=O)c2ccc3c(c2)OCCO3)cc1NC(=O)c1ccc2nc(OCCN3CCCCC3)ccc2c1`, the GI50 in the series with SK-OV-3 was 1.07 nM.

In the case of `Cc1ccc(NC(=O)c2ccc3c(c2)OCCO3)cc1NC(=O)c1ccc2nc(OCCN3CCCC3)ccc2c1`, the concentration at […] in series [1] turned out to be 940 nM.

`Cc1ccc(NC(=O)c2cccc3c2OCCO3)cc1NC(=O)c1ccc2nc(OCCN3CCCC3)ccc2c1`: the outcome in the series on WM 266-4 was inactive.
